For the test, the system named is P335 leukemia ip, BDF1 mice, survival T/C %. The test is described as follows: NCI In Vivo Anticancer Drug Screen. Data for tumor model P335 Leukemia (intraperitoneal) in B6D2F1 (BDF1) mice. As to conditions: endpoint: mean survival time, higher = longer survival. Here is the method: The antitumor activity of compounds was measured in mice bearing transplantable tumors. Survival or tumor size were measured and the results are expressed as the measurement made in the treated group (T) divided by the measurement made in the vehicle treated control group (C). The tumor model used in this assay is P335 Leukemia (intraperitoneal) in B6D2F1 (BDF1) mice

[1] abbreviates: dose: 1.0 mg/kg/injection, schedule: Q01DX Z (ip), vehicle: water.
Setting [2] is: dose: 12.5 mg/kg/injection, schedule: Q01DX Z (ip), vehicle: saline.
The mark [3] stands for this setting: dose: 100.0 mg/kg/injection, schedule: Q01DX Z (ip), vehicle: saline.
Where [4] appears, read: dose: 9.4 mg/kg/injection, schedule: Q01DX Z (ip), vehicle: carboxymethylcellulose (CMC).
The mark [5] stands for this setting: dose: 18.75 mg/kg/injection, schedule: Q01DX Z (ip), vehicle: carboxymethylcellulose (CMC).

Molecules are shown by their SMILES. “And” between values parts separate entries of the source, which are not always exact repeats. Equal entries are not always repeated. Inconclusive results and toxic doses are left out.

On to `O=C(Nc1ccc(NC2=NCCN2)cc1)c1ccc(C(=O)Nc2ccc(NC3=NCCN3)cc2)cc1`, for which the T/C was 175 % of control (dose: 4.0 mg/kg/injection, schedule: Q01DX Z (ip), vehicle: saline); 208 % of control (dose: 8.0 mg/kg/injection, schedule: Q01DX Z (ip), vehicle: saline); 170 % of control (dose: 16.0 mg/kg/injection, schedule: Q01DX Z (ip), vehicle: saline); 91 % of control (dose: 32.0 mg/kg/injection, schedule: Q01DX Z (ip), vehicle: saline).

For `N#Cc1cn(C2OC(CO)C(O)C2O)c2ncnc(N)c12` (stereo not drawn), the T/C was 106 % of control (dose: 0.25 mg/kg/injection, schedule: Q01DX Z (ip), vehicle: carboxymethylcellulose (CMC)) and 98 % of control (dose: 0.5 mg/kg/injection, schedule: Q01DX Z (ip), vehicle: carboxymethylcellulose (CMC)).

With `Nc1nc(N)c2nc(CNc3ccc(C(=O)NC(CCC(=O)O)C(=O)O)cc3)cnc2n1` (stereo not drawn), the T/C is 96 % of control (dose: 16.0 micrograms/kg/injection, schedule: Q01DX Z (ip), vehicle: alkali diluted with saline); 121 % of control (dose: 31.0 micrograms/kg/injection, schedule: Q01DX Z (ip), vehicle: alkali diluted with saline); 169 % of control (dose: 62.0 micrograms/kg/injection, schedule: Q01DX Z (ip), vehicle: alkali diluted with saline); 96 % of control (dose: 63.0 micrograms/kg/injection, schedule: Q01DX Z (ip), vehicle: alkali diluted with saline); 98 % of control (dose: 250.0 micrograms/kg/injection, schedule: Q01DX Z (ip), vehicle: alkali diluted with saline).

As for `CN(Cc1cnc2nc(N)nc(N)c2n1)c1c(Cl)cc(C(=O)NC(CCC(=O)O)C(=O)O)cc1Cl` (stereo not drawn), for the setting “dose: 25.0 mg/kg/injection, schedule: Q01DX Z (ip), vehicle: carboxymethylcellulose (CMC)”, the T/C was 104 % of control and 121 % of control.

For the compound `CC[C@]1(O)C[C@H]2CN(CCc3c([nH]c4ccccc34)[C@@](C(=O)OC)(c3cc4c(cc3OC)N(C=O)[C@H]3[C@@](O)(C(=O)OC)[C@H](OC(C)=O)[C@]5(CC)C=CCN6CC[C@]43[C@@H]65)C2)C1`, the T/C was 234 % of control and 101 % of control and 107 % of control (dose: 0.12 mg/kg/injection, schedule: Q01DX Z (ip), vehicle: water); 89 % of control and 90 % of control (dose: 0.5 mg/kg/injection, schedule: Q01DX Z (ip), vehicle: water); 86 % of control under setting [1].

On to `C[C@H](N)C(=O)N[C@@H]1[C@H]2C(=C(O)C[C@@H](O)[C@@H]2O)C(=O)O[C@@H]1C`, for which the T/C is 114 % of control (dose: 23.43 mg/kg/injection, schedule: Q01DX Z (ip), vehicle: saline); 168 % of control (dose: 187.5 mg/kg/injection, schedule: Q01DX Z (ip), vehicle: saline); 151 % of control and 182 % of control (dose: 375.0 mg/kg/injection, schedule: Q01DX Z (ip), vehicle: saline); 191 % of control (dose: 750.0 mg/kg/injection, schedule: Q01DX Z (ip), vehicle: saline).

As to `O=c1[nH]cc(F)c(=O)[nH]1`, the T/C (dose: 0.78 mg/kg/injection, schedule: Q01DX Z (ip), vehicle: saline) is 103 % of control; the T/C (dose: 2.34 mg/kg/injection, schedule: Q01DX Z (ip), vehicle: saline) was 123 % of control; the T/C (dose: 4.68 mg/kg/injection, schedule: Q01DX Z (ip), vehicle: saline) is 118 % of control; the T/C (dose: 9.35 mg/kg/injection, schedule: Q01DX Z (ip), vehicle: saline) was 113 % of control; the T/C under setting [2] is 100 % of control; the T/C (dose: 18.7 mg/kg/injection, schedule: Q01DX Z (ip), vehicle: saline) was 108 % of control. For the same compound, under setting [3], the T/C is 93 % of control.

With `O[C@H](CN1CC1)[C@@H](O)CN1CC1`, the T/C is 95 % of control (dose: 1.8 micrograms/kg/injection, schedule: Q01DX Z (ip), vehicle: carboxymethylcellulose (CMC)); 111 % of control (dose: 3.7 micrograms/kg/injection, schedule: Q01DX Z (ip), vehicle: carboxymethylcellulose (CMC)); 119 % of control (dose: 7.5 micrograms/kg/injection, schedule: Q01DX Z (ip), vehicle: carboxymethylcellulose (CMC)); 109 % of control (dose: 15.0 micrograms/kg/injection, schedule: Q01DX Z (ip), vehicle: carboxymethylcellulose (CMC)).

Consider `CN(N=O)C(=O)NC(C=O)C(O)C(O)C(O)CO` (stereo not drawn), for which the T/C is 96 % of control (dose: 6.25 mg/kg/injection, schedule: Q01DX Z (ip), vehicle: saline); 112 % of control under setting [2]; 113 % of control (dose: 25.0 mg/kg/injection, schedule: Q01DX Z (ip), vehicle: saline); 151 % of control under setting [3].

Regarding `Nc1nc(SCc2ccccc2)c2[nH]cnc2n1`, the T/C (dose: 2.35 mg/kg/injection, schedule: Q01DX Z (ip), vehicle: carboxymethylcellulose (CMC)) was 87 % of control; the T/C under setting [4] is 108 % of control; the T/C under setting [5] is 87 % of control.

Take `O=C(Nc1ccc(C2=NCCN2)cc1)c1cccc(C(=O)Nc2ccc(C3=NCCN3)cc2)c1`: the T/C by setting is: under setting [4], 98 % of control; under setting [5], 114 % of control; (dose: 37.5 mg/kg/injection, schedule: Q01DX Z (ip), vehicle: carboxymethylcellulose (CMC)) 123 % of control; (dose: 75.0 mg/kg/injection, schedule: Q01DX Z (ip), vehicle: carboxymethylcellulose (CMC)) 98 % of control.

For `Oc1cc(CN(CCCl)CCCl)c(O)cc1CN(CCCl)CCCl`, the T/C reads like this: (dose: 0.24 mg/kg/injection, schedule: Q01DX Z (sc), vehicle: steriod suspending solution) 95 % of control; (dose: 0.47 mg/kg/injection, schedule: Q01DX Z (sc), vehicle: steriod suspending solution) 109 % of control; (dose: 0.94 mg/kg/injection, schedule: Q01DX Z (sc), vehicle: steriod suspending solution) 103 % of control; (dose: 1.87 mg/kg/injection, schedule: Q01DX Z (sc), vehicle: steriod suspending solution) 104 % of control; (dose: 7.5 mg/kg/injection, schedule: Q01DX Z (sc), vehicle: steriod suspending solution) 87 % of control.

Take `C[C@]12CC[C@H](OC3OC(CO)C(O)C(O)C3O)C[C@H]1CC[C@@H]1[C@@H]2CC[C@]2(C)[C@@H](C3=CCOC3=O)CC[C@]12O` (stereo partly drawn): the T/C runs as follows: (dose: 0.04 mg/kg/injection, schedule: Q01DX Z (ip), vehicle: saline) 97 % of control; (dose: 0.08 mg/kg/injection, schedule: Q01DX Z (ip), vehicle: saline) 96 % of control; (dose: 0.16 mg/kg/injection, schedule: Q01DX Z (ip), vehicle: saline) 92 % of control; (dose: 0.31 mg/kg/injection, schedule: Q01DX Z (ip), vehicle: saline) 86 % of control.

Take `CN(Cc1cnc2nc(N)nc(N)c2n1)c1ccc(C(=O)N[C@@H](CCC(=O)O)C(=O)O)cc1`: the T/C is, setting by setting: (dose: 0.31 mg/kg/injection, schedule: Q01DX Z (ip), vehicle: other) 110 % of control; (dose: 3.0 mg/kg/injection, schedule: Q01DX Z (ip), vehicle: other) 88 % of control.

As to `CC(=O)OCC1OC(n2ncc(=O)[nH]c2=O)C(OC(C)=O)C1OC(C)=O` (stereo not drawn), the T/C by setting is: (dose: 25.0 mg/kg/injection, schedule: Q01DX Z (ip), vehicle: other) 120 % of control; (dose: 50.0 mg/kg/injection, schedule: Q01DX Z (ip), vehicle: other) 109 % of control; (dose: 99.0 mg/kg/injection, schedule: Q01DX Z (ip), vehicle: other) 114 % of control; (dose: 187.5 mg/kg/injection, schedule: Q01DX Z (ip), vehicle: other) 124 % of control; (dose: 188.0 mg/kg/injection, schedule: Q01DX Z (ip), vehicle: other) 114 % of control.

In the case of `O=c1cnn(C2OC(CO)C(O)C2O)c(=O)[nH]1` (stereo not drawn), the T/C (dose: 0.98 mg/kg/injection, schedule: Q01DX Z (ip), vehicle: water) is 102 % of control; the T/C under setting [1] was 95 % of control; the T/C (dose: 1.95 mg/kg/injection, schedule: Q01DX Z (ip), vehicle: water) is 115 % of control; the T/C (dose: 2.0 mg/kg/injection, schedule: Q01DX Z (ip), vehicle: water) was 98 % of control; the T/C (dose: 3.9 mg/kg/injection, schedule: Q01DX Z (ip), vehicle: water) was 105 % of control; the T/C (dose: 7.8 mg/kg/injection, schedule: Q01DX Z (ip), vehicle: water) was 112 % of control. Also, the T/C (dose: 8.0 mg/kg/injection, schedule: Q01DX Z (ip), vehicle: water) was 93 % of control; the T/C (dose: 15.6 mg/kg/injection, schedule: Q01DX Z (ip), vehicle: water) was 152 % of control; the T/C (dose: 250.0 mg/kg/injection, schedule: Q01DX Z (ip), vehicle: water) was 101 % of control; the T/C (dose: 500.0 mg/kg/injection, schedule: Q01DX Z (ip), vehicle: water) is 104 % of control; the T/C (dose: 1000.0 mg/kg/injection, schedule: Q01DX Z (ip), vehicle: water) is 112 % of control.

For the origin of these results see PubChem BioAssay AID224 (DTP/NCI, 2004).
